Assays:
hCBS Q222A = biological target: T1, hCBS Q222A (Homo sapiens, UniProt P35520, Q222A); assay: purified hCBS mutant enzyme assay; format: biochemical
T1 construct: hCBS-413 (a C-terminal truncated hCBS 1–413); GST (N); made in house; host or cells: E. coli BL21
T1 sequence (P35520 1-413 Q222A): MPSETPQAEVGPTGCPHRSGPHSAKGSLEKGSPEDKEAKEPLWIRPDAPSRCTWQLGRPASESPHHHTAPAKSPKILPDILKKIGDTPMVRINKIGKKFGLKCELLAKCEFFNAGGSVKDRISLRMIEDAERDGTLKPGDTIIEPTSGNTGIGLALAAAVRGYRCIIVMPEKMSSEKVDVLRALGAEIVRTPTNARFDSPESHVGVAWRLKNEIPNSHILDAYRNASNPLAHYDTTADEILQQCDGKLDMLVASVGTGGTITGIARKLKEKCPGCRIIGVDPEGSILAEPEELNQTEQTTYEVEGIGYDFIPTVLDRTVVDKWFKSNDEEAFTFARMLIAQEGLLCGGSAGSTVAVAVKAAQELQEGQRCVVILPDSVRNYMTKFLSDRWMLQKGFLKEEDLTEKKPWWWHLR
Method: The IC50 values of CH004 for hCBS-413, hCBS-413 mutants, hCBS-FL, hCSE or hDDC were determined according to the standard assay conditions otherwise indicated.
Figure S6. […] HEK293T cells stably expressing CBS Q222A mutant (293T-CBS Q222A) were treated with 0 (DMSO control), 5 or 10 μM CH004 for 8 h before staining with the AzMC to detect H2S. The overlaid images of fluorescent and bright-field images are shown in the left panel, and the corresponding fluorescent (blue, H2S) and bright-field images are shown in the middle and right panels, respectively. Bars: 50 μm. [picture] Figure S7. The CH004-insensitive CBS Q222A mutant can be inhibited by HA. (A) HEK293T cells stably expressing CBS Q222A mutant (293T-CBS Q222A) were treated with 0 (DMSO, control), 5 or 10 μM of CH004, 1 mM or 2 mM of HA for 8 h before staining with the AzMC to detect H2S. The overlaid images of fluorescent and bright-field images are shown in the upper panel, and the corresponding fluorescent (blue, H2S) and bright-field images are shown in the middle and lower panels, respectively. Bars: 50 μm. (B) Quantification of the mean fluorescent density of H2S (blue). The intensity of blue light of the fluorescent images was quantified by ImageJ software, quantified and deduced the background signal in HEK293T-EV cells (Supplementary Figure S3B), normalized by the corresponding cell area and expressed as percentages of control (DMSO group, 100%). Means ± SDs (n=3). One-way ANOVA with Bonferroni post-tests was used for the analysis. *, p< 0.05; **, p< 0.01; n.s. no significance. The images are one representative from three independent experiments. (C) The inhibitory effect of 1 mM HA on purified CBS Q222A mutant. The assay was performed using 60 mM Cys and 1.2 μM CBS-413 Q222A mutant. The data were expressed as percentages of control (DMSO, 100%). Means ± SDs (n=4). [picture]
Table S2. Inhibitory effects of CH004 on hCBS WT and mutants.

HEK293T cells = assay: intracellular ROS (DCFH-DA, flow cytometry); format: cell-based; details: 12 h
Method: Fig. 5 In situ reduction of CBS activity and H2S in mitochondria by CH004 is coupled with an increase of intracellular ROS. a, b CH004 dose-dependently elevates ROS levels in both HepG2 (a) and HEK293T cells (b). The cells were treated with CH004 for 12 h or with 1 mM H2O2 for 30 min before the staining with DCFH-DA (Molecular Probes) and the analyzsis by flow cytometry (“Materials and Methods” section). Means ± SDS (n = 3). […] HepG2 cells were incubated with indicated inhibitors for 8 h before staining with the mitochondria tracker Mito-tracker® Green (Invitrogen) and the AzMC probe. Cyan represents the colocalization of H2S (blue) and the mitochondria tracker (green). Bars: 50 μm. d hCBS co-localizes with the mitochondria in HepG2 and HEK293T cells. HepG2 and HEK293T cells were stained with an anti-CBS antibody (3E1, 1:200; Abnova) for hCBS (red), Mito-tracker® Green for the mitochondria (green) and DAPI for the nucleus (blue). […]
To investigate the intracellular ROS levels, HEK293T or HepG2 cells were seeded in 6-well plates for one day, then incubated with the indicated inhibitors and 1 mM H2O2 for 12 h and 30 min, respectively. After trypsinization and one wash in PBS, the collected cells were resuspended in PBS and incubated with 100 μM probe DCFH-DA for 30 min at 37 °C before being analyzed using an LSR Fortessa flow cytometer.

HepG2 cells = assay: colony formation (crystal violet); format: cell-based, human; details: 24 h treatment
Description: Figure S12. CH004 inhibits the proliferation of cells via specifically targeting hCBS. (A-B) Dose-dependent curves of CH004 on the cell viability of CBS-stably-expressed HEK293T (A) or CBS-knockdown cells (B). Percentages of cell viability of CH004 obtained in Figure 4b were fitted to the non-linear equation using GraphPad Prism 5 to get the IC50 values of CH004 in respective cell lines (●, 293T-CBS WT cells; ○, 293T-EV; ▲, 293T-shCBS; △, 293T-shNT). Means ± SDs (n=3). […] HEK293T cells stably expressing of the lentiviral shRNA targeting CBS (shCBS) or control shRNA (shNT) were seeded at the density of ~ 3,000 cells per well in 96-well plates and the cell images in the bright field were acquired at indicated times by Image Xpress Micro® XLS (Molecular Devices, Sunnyvale, CA) under 10 × objective lens. Representative images of two independent experiments (n = 6 for each experiment) are shown in C. The cell numbers of images under 4 × objective lens of one representative experiment were calculated by Image Xpress Software and the data is shown in D. Means ± SDs (n=6). […] HepG2 cells were seeded in a 96-well plate at a density of 20000 cells per well and cultured for 24 h before treatment with indicated concentrations of CH004 for another 24 h. The colonies were stained with crystal violet and quantified by measuring the absorbance at 590 nm. […] Means ± SDs (n=3). […]

SMILES: Cn1nc(Cc2ccccc2)nc2c(=O)n(C)c(=O)nc1-2 [CH004, 3-benzyl-1,6-dimethylpyrimido[5,4-e][1,2,4]triazine-5,7(1H,6H)-dione]
- IC50 (hCBS Q222A): 27.6 ± 0.9 µM
- IC50 fold to WT, Q222A (hCBS Q222A): 23
- maximum increase of cellular ROS (HEK293T cells): ~ 2 fold
- IC50 (HepG2 cells): ~8 µM
- IC50 (HepG2 cells; Homo sapiens, HepG2, 24 h): ~7.9 µM
